Assay results: ChEMBL document CHEMBL1140648, “Structure-activity relationships of bioisosteres of a carboxylic acid in a novel class of bacterial translation inhibitors” (2007)
≈ marks a conversion by molar mass, not a printed value.

Assays:
Assay type in all cases: functional
Staphylococcus aureus [1] = test: Ratio of MIC for Staphylococcus aureus UC9218 in presence of 5% HSA to MIC for Staphylococcus aureus UC9218 in absence of HSA
Staphylococcus aureus [2] = test: Inhibition of transcription/translation in Staphylococcus aureus at 100 uM
Staphylococcus aureus [3] = test: Antibacterial activity against Staphylococcus aureus UC9218
Staphylococcus aureus [4] = test: Antibacterial activity against Staphylococcus aureus UC9218 in presence of 5% HSA
Staphylococcus aureus [5] = test: Antibacterial activity against Staphylococcus aureus UC9218 in presence of 10% HSA

SMILES	MIC (Staphylococcus aureus [3]) [µg/mL]	MIC (Staphylococcus aureus [4]) [µg/mL]	MIC (Staphylococcus aureus [5]) [µg/mL]	Ratio (Staphylococcus aureus [1])	inhibition at 100 µM (Staphylococcus aureus [2]) [%]
CC(O)c1cc(Br)ccc1NC(=O)c1ccc(S(=O)(=O)N(C)c2ccc(Cl)cc2)cc1 (stereo unspecified)	> 128				7
Cc1cc(Br)ccc1NC(=O)c1ccc(S(=O)(=O)N(C)c2ccc(Cl)cc2)cc1	> 128				12
CN(c1ccc(Cl)cc1)S(=O)(=O)c1ccc(C(=O)Nc2ccc(Br)cc2NS(C)(=O)=O)cc1	> 128				19
CN(c1ccc(Cl)cc1)S(=O)(=O)c1ccc(C(=O)Nc2ccc(Br)cc2Br)cc1	> 128				6
CC(=O)c1cc(Br)ccc1NC(=O)c1ccc(S(=O)(=O)N(C)c2ccc(Cl)cc2)cc1	> 128				0
CN(c1ccc(Cl)cc1)S(=O)(=O)c1ccc(C(=O)Nc2ccc(Br)cc2)cc1	> 128				11
CN(c1ccc(Cl)cc1)S(=O)(=O)c1ccc(C(=O)Nc2ccc(Br)cc2[N+](=O)[O-])cc1	> 128				0
CN(c1ccc(Cl)cc1)S(=O)(=O)c1ccc(C(=O)Nc2ccc(Br)cc2C#N)cc1	> 128				0
CO[C@@H]1[C@@H](OC(N)=O)[C@@H](O)[C@H](Oc2ccc3c(O)c(NC(=O)c4ccc(O)c(CC=C(C)C)c4)c(=O)oc3c2C)OC1(C)C [NOVOBIOCIN]	> 0.125	0.5	1		

Second part, led by results:

MIC (Staphylococcus aureus [3]) [µg/mL]	MIC (Staphylococcus aureus [4]) [µg/mL]	MIC (Staphylococcus aureus [5]) [µg/mL]	SMILES	Ratio (Staphylococcus aureus [1])	inhibition at 100 µM (Staphylococcus aureus [2]) [%]
8 (≈ 15.3 µM)	128	> 128	CN(c1ccc(Cl)cc1)S(=O)(=O)c1ccc(C(=O)Nc2ccc(Br)cc2C(=O)O)cc1	8	79
8 (≈ 14.2 µM)	> 128	> 128	CN(c1ccc(Cl)cc1)S(=O)(=O)c1ccc(C(=O)Nc2ccc(Br)cc2-c2noc(=O)[nH]2)cc1	>8	98
0.5 (≈ 0.774 µM)	64	> 128	CN(c1ccc(Cl)cc1)S(=O)(=O)c1ccc(C(=O)Nc2ccc(Br)cc2C(O)(C(F)(F)F)C(F)(F)F)cc1	128	41
> 128			CN(c1ccc(Cl)cc1)S(=O)(=O)c1ccc(C(=O)Nc2ccc(Br)cc2CO)cc1		4
> 128			CN(c1ccc(Cl)cc1)S(=O)(=O)c1ccc(C(=O)Nc2ccc(Br)cc2C(N)=O)cc1		13
> 128			CONC(=O)c1cc(Br)ccc1NC(=O)c1ccc(S(=O)(=O)N(C)c2ccc(Cl)cc2)cc1		7
> 128			CN(c1ccc(Cl)cc1)S(=O)(=O)c1ccc(C(=O)Nc2ccc(Br)cc2Cc2nnn[nH]2)cc1		46
2 (≈ 3.55 µM)		> 128	CN(c1ccc(Cl)cc1)S(=O)(=O)c1ccc(C(=O)Nc2ccc(Br)cc2-c2n[nH]c(=O)o2)cc1		60
> 128			CN(c1ccc(Cl)cc1)S(=O)(=O)c1ccc(C(=O)Nc2ccc(Br)cc2S(N)(=O)=O)cc1		0
16 (≈ 29.2 µM)			CN(c1ccc(Cl)cc1)S(=O)(=O)c1ccc(C(=O)Nc2ccc(Br)cc2-c2nnn[nH]2)cc1		96
32 (≈ 51 µM)			CN(c1ccc(Cl)cc1)S(=O)(=O)c1ccc(C(=O)Nc2ccc(Br)cc2NS(=O)(=O)C(F)(F)F)cc1		72
